The values that follow come from ChEMBL document CHEMBL1133098, “Subtype-selective N-methyl-D-aspartate receptor antagonists: benzimidazalone and hydantoin as phenol replacements” (J Med Chem, 2000).

Broadly, the IC50 is the concentration that gives 50% inhibition.

Common to all, as to type: cell-based, Oocyte
In assay [1] the target is Glutamate NMDA receptor; Grin1/Grin2a (Rattus norvegicus, UniProt P35439+Q00959). Nature of the assay: In vitro inhibition of NMDA responses at NR1A/2A receptor expressed in Xenopus oocytes.
Sequence of Glutamate NMDA receptor; Grin1/Grin2a (Q00959 whole entry, looked up, other chains not shown): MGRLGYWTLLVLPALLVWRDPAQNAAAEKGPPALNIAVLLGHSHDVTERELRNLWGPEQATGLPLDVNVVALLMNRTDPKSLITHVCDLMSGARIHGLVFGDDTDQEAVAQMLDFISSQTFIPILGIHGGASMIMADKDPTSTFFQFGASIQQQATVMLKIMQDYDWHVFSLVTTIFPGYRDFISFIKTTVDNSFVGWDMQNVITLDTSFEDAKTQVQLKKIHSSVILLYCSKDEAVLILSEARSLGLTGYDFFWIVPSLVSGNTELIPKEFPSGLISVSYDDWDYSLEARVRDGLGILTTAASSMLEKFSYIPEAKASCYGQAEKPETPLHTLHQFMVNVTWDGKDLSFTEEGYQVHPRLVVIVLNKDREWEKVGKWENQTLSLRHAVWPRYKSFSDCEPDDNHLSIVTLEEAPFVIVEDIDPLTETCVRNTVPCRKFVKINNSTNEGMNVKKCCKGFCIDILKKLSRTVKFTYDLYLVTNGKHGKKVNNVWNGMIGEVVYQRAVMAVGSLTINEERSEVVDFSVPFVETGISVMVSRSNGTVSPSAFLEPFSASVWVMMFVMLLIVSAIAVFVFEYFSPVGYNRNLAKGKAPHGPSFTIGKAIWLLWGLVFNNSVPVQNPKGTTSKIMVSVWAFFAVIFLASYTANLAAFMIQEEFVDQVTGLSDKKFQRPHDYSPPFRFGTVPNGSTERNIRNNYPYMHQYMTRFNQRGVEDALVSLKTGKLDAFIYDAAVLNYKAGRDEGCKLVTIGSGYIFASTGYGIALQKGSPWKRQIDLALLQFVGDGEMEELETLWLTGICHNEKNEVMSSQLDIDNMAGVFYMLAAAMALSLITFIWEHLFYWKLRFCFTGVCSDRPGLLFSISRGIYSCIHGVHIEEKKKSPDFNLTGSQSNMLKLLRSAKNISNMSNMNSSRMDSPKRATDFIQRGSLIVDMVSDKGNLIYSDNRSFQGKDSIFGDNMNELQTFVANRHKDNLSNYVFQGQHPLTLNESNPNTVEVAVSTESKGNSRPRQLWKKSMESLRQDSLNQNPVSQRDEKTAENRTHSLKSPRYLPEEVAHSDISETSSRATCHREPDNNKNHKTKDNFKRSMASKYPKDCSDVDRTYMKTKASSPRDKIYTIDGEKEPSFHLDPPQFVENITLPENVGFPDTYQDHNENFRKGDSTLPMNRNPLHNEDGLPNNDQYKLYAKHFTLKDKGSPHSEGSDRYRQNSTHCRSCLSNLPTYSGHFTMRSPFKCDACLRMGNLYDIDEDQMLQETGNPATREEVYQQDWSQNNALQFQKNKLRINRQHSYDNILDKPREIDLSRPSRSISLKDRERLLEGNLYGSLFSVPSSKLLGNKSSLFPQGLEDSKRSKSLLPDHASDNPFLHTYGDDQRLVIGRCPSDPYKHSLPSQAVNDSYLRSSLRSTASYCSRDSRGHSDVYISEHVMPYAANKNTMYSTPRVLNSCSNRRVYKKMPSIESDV
The target in assay [2] is Glutamate NMDA receptor; Grin1/Grin2b (Rattus norvegicus, UniProt P35439+Q00960). Nature of the assay: In vitro inhibition of NMDA responses at NR1A/2B receptor expressed in Xenopus oocytes.
Sequence of Glutamate NMDA receptor; Grin1/Grin2b (Q00960 whole entry, looked up, other chains not shown): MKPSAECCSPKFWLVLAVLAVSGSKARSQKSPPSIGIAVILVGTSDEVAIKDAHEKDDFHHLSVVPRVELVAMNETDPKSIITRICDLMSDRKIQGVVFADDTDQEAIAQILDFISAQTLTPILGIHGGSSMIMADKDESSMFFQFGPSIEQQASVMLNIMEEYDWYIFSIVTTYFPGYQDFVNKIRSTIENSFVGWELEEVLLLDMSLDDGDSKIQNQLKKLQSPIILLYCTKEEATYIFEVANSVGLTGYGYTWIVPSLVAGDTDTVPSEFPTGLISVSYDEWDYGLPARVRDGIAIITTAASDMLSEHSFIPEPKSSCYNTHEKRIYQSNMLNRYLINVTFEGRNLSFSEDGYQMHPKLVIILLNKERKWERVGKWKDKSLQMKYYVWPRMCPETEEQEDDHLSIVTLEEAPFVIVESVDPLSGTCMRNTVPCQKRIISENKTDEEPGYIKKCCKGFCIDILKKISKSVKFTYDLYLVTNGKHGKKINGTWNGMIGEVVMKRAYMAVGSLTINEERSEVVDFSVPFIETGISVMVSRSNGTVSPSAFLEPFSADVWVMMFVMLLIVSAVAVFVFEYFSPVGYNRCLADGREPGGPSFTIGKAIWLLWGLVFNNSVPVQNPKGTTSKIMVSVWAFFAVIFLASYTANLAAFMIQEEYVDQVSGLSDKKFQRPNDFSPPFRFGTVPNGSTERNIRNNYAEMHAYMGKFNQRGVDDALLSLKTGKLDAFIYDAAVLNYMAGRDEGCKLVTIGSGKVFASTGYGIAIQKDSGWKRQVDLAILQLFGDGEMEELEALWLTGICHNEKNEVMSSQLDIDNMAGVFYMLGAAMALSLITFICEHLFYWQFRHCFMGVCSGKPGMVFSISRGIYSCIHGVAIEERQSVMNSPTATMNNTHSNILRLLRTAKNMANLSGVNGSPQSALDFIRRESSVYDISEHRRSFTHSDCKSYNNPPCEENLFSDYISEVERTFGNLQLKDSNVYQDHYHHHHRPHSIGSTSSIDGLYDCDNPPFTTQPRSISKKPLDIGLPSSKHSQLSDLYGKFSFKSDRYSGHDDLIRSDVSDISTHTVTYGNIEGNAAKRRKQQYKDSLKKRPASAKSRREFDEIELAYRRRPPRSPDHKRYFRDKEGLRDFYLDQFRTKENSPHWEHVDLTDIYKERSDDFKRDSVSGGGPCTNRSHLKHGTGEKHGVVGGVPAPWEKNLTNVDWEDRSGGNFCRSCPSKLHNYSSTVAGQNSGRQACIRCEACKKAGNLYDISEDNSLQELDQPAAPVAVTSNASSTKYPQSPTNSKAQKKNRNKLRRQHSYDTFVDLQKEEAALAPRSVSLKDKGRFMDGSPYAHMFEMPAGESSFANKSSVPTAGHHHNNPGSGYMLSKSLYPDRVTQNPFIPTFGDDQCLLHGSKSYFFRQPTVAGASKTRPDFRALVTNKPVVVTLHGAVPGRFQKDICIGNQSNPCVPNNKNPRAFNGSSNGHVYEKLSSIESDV
Assay [3] deals with Glutamate receptor ionotropic, NMDA 2C (Rattus norvegicus, UniProt P35439+Q00961). The experiment in a line: In vitro inhibition of NMDA responses at NR1A/2C receptor expressed in Xenopus oocytes.
Sequence of Glutamate receptor ionotropic, NMDA 2C (Q00961 whole entry, one chain of several): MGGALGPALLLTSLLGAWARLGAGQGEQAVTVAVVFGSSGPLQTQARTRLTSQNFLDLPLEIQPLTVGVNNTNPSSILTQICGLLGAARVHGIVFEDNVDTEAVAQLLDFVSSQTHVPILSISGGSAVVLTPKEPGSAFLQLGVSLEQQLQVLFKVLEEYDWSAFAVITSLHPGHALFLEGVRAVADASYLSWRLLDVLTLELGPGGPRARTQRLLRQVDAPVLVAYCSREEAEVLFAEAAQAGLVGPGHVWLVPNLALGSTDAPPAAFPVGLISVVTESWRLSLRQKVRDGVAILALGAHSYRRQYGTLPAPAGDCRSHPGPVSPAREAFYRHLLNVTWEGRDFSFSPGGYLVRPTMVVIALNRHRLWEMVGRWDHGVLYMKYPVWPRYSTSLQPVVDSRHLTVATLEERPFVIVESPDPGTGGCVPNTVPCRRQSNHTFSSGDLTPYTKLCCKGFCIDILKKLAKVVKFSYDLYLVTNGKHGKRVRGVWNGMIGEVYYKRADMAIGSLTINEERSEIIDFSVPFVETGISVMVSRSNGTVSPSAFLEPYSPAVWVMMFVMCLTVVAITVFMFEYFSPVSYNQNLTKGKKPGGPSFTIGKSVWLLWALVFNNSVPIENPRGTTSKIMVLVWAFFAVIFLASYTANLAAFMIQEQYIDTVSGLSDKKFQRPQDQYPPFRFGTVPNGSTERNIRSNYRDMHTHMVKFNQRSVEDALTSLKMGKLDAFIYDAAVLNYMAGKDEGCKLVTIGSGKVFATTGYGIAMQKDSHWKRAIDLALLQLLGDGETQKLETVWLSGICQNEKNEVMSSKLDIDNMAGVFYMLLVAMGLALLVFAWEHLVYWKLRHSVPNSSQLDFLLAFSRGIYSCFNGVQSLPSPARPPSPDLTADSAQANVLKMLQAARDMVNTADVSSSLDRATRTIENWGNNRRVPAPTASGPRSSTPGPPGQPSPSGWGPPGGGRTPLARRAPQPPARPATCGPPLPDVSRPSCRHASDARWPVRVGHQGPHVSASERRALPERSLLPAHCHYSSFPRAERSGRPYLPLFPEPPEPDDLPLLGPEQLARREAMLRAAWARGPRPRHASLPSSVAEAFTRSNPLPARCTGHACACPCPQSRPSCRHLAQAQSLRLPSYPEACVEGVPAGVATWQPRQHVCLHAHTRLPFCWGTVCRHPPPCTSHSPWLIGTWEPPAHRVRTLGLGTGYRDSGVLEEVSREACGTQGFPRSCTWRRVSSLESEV

As for `Oc1nc2ccccc2n1CCCCN1CCC(Cc2ccccc2)CC1`, the values for the IC50 in assay [1], in assay [2] and in assay [3] were more than 100 µM, 3.4 µM and more than 100 µM, respectively.
With `O=C1CNC(=O)N1CCCCCN1CCC(Cc2ccccc2)CC1`, the IC50 in assay [1] was 88 µM; in assay [2], 49 µM; in assay [3] it was more than 100 µM.
Take `Oc1ccc(OCCN2CCC(Cc3ccccc3)CC2)cc1`: the IC50 in assay [1] and in assay [3] was more than 100 µM in each case.
`O=C1CNC(=O)N1CCCCN1CCC(Cc2ccccc2)CC1`: the IC50 in assay [1] is more than 100 µM; in assay [2], 10 µM; in assay [3], more than 100 µM.
On to `O=c1[nH]c2ccccc2n1CCCN1CCC(Cc2ccc(F)cc2)CC1`, for which the IC50 was more than 100 µM in assay [1], 0.11 µM in assay [2] and more than 100 µM in assay [3].
As to `O=c1[nH]c2ccccc2n1CCCN1CCC(Cc2ccccc2)CC1`, the IC50 in assay [1] is more than 100 µM; in assay [2], 0.095 µM; in assay [3] it was more than 100 µM.
For `O=c1[nH]c2ccccc2n1CCCCCN1CCC(Cc2ccccc2)CC1`, the results for the IC50 in assay [1], in assay [2] and in assay [3] were more than 100 µM, 11 µM and more than 100 µM, respectively.
`O=C1CNC(=O)N1CCCN1CCC(Cc2ccccc2)CC1`: the IC50 is more than 100 µM in assay [1], 27 µM in assay [2] and more than 100 µM in assay [3].
